{"source": "patent US11203582B2", "about": "“Benzamide derivatives for inhibiting endoplasmic reticulum (ER) stress” (The Board of Regents of the University of Oklahoma, priority 2017, dated 2021)", "format_in_all_cases": "cell-based, rat", "key": {"INS1 mRNA": {"tested_on": "INS1 mRNA", "assay": "qRT-PCR of INS1 mRNA in Tm-treated INS-1 cells", "conditions": "Tm co-treatment, 24 h", "experimental": "(§1) (A-D) INS-1 cells were treated with or without Tm (0.1 m/mL) in the presence of 13d at indicated concentrations or DMSO for 24 h. The mRNA levels of INS1 (A), INS2 (B), PDX1 (C), and MafA (D), were analyzed by qRT-PCR. Relative mRNA levels were normalized against the housekeeping gene Cyclophilin A using the comparative CT method. The results are the means of 3 replicate wells and are representative of 3 independent experiments. * P<0.05 and ** P<0.01 compared with Tm treatment alone. Bars indicate SD. (E) Insulin secretion by INS-1 cells incubated with 1.7 mM and 20 mM glucose in the presence or absence of Tm (0.1 μg/mL) and 13d. Secreted insulin was measured by ELISA after 24 h treatment. * P<0.05. The amount of insulin secreted in response to 1.7 mM glucose in the absence of Tm was set to 1.0 and was normalized with total protein concentration.\n(§2) INS-1 cells were seeded at 4×10^5 cells/well in 6-well plates and treated with compounds for the indicated times. […] Relative mRNA levels were normalized against the housekeeping gene Cyclophilin A and were determined by ΔΔCt calculated from the difference in ΔCt values between the target gene and Cyclophilin A with and without treatment, based on comparative CT (cycle threshold) method. […]"}, "INS2 mRNA": {"tested_on": "INS2 mRNA", "assay": "qRT-PCR of INS2 mRNA in Tm-treated INS-1 cells", "conditions": "Tm co-treatment, 24 h", "experimental": "as §1, §2"}, "INS-1 cells [1]": {"tested_on": "INS-1 cells", "assay": "Cell survival assay, intracellular ATP (CellTiter-Glo), INS-1 cells treated with Tm", "experimental": "A structure-activity-relationship (SAR) study was thus conducted to improve the weak potency of lead compound 1. Newly synthesized or commercially available compounds were tested for their β-cell-protective activity against ER stress in rat INS-1 β-cells. […] The maximum activities and the concentrations that reach half-maximal activity (EC50) of the compounds were evaluated by the degree of increase in viability of INS-1 cells co-treated with the compounds in the presence of Tm compared with Tm treatment alone. Maximum activity value in the tables is reported as % rescue from Tm (0.1 μg/mL)-induced reduction of cell viability. The values for Tm treatment alone and control (DMSO, without Tm) treatment are designated as 0% and 100%, respectively in all tables. EC50 values (the concentrations that reach half-maximal activity) for INS-1 cell viability were calculated with GraphPad Prism from the data of ten 2-fold serial titration points in all tables. All experiments were performed in triplicate in all tables.\nINS-1 cells were cultured in RPMI 1640 (Corning, N.Y., USA) supplemented with 10% FBS (Atlanta Biologicals, Norcross, Ga.), HEPES (10 mM, Life Technologies, CA, USA), sodium pyruvate (1 mM, Corning), 2-mercaptoethanol (50 μM, Sigma, St Louis, Mo., USA) and antibiotics (100 UI/mL penicillin and 100 μg/mL streptomycin, Corning). βTC6 cells were cultured in DMEM (Corning) with 15% FBS, sodium pyruvate (1 mM, Corning), non-essential amino acids (1 mM, Thermo, Ill., USA), GlutaMAX (1 mM, Life Technologies) and antibiotics (100 UI/mL penicillin and 100 μg/mL streptomycin). All cells were grown at 37° C. in a humidified 5% CO2 atmosphere.\nINS-1 cells or βTC6 cells were seeded at 3×10^3 cells/well in a 384-well plate and treated with compounds at the indicated concentrations. After 3 d treatment, the medium was aspirated and 20 μL/well of CellTiter-Glo reagent (Promega, WI, USA) was added for the detection of intracellular ATP levels. Cell viability was measured with an EnVision multilabel plate reader (PerkinElmer, MA, USA)."}, "INS-1 cells [2]": {"tested_on": "INS-1 cells", "assay": "MTT cell viability assay, INS-1 cells treated with Tm", "conditions": "Tm 0.1 μg/mL, 72 h, FIG. 2B", "source_text": "The measurement of intracellular ATP level was use as a surrogate assay for cell viability. […] To confirm the authenticity of 13d's protective effect on β-cell viability (not simply an increase in ATP-specific measurement), we used the MTT assay, which measures the activity of NAD(P)H-dependent cellular oxidoreductase enzymes, as an orthogonal method to measure cell viability. […] To determine whether the protective effect of 13d on β-cells is specific to INS-1 cells, another β-cell line, βTC6, was used. […] In addition, compound 13d on its own had no effect on β-cell viability in both cell lines (FIG. 2C-D).\nINS-1 cells or βTC6 cells were seeded at 3×10^3 cells/well in a 384-well plate and treated with compounds at the indicated concentrations. After 3 d treatment, the medium was aspirated and 10 μl of MTT reagent (Cayman Chemical, MI, USA, prepared according to manufacturer's instruction) to each well was added and mixed gently for one minute on an orbital shaker. The cells were then incubated for three hours at 37° C. in a CO2 incubator. After incubation, add 100 μl of crystal dissolving solution to each well, and incubate for 4 hours in a 37° C. CO2 incubator. Viability will be measured for the absorbance to each sample at 570 nm using EnVision multilabel plate reader (PerkinElmer, MA, USA)."}, "INS-1 cells [3]": {"tested_on": "INS-1 cells", "assay": "Live-cell phase-contrast imaging of Tm-treated INS-1 cells", "design": "dose or concentration left out as unconfirmed", "conditions": "48 h, FIG. 3B", "experimental": "(A) INS-1 cells were treated with or without Tm (0.1 m/mL) in the presence of 13d at indicated concentrations or DMSO for 24 h. Cleaved caspase-3 and PARP were determined by Western blotting. α-Tubulin was used as a loading control. The data shown are representative of 3 independent experiments. (B) INS-1 cells were treated with or without Tm (0.1 m/mL) in the presence of 13d (0.111M) or DMSO for 48 h, and live-cell phase-contrast images were acquired (magnification 10×). The images shown are representative of 3 independent experiments. (C) TUNEL staining of INS-1 cells. INS-1 cells were treated with 0.111 g/mL of Tm with or without compound 13d for 24 h before TUNEL staining. DAPI was used as a nuclear marker. Magnification is 20×. The images shown are representative of 3 independent experiments. (D) Quantification of TUNEL staining from 20 fields of images. ** P<0.01 compared with Tm treatment alone."}}, "note": "Like-named read-outs stand apart in the source and are kept apart here.", "data": [{"smiles": "O=C(NCc1ccc(C(F)(F)F)cc1)c1cccc(CN2CCCCC2)c1", "note": "[Compound 13d, N-(4-trifluoromethylphenmethyl)-3-(N-piperidinyl)methyl benzamide]", "values": [{"measurement": "Tm-suppressed INS1 mRNA level", "setting": "INS1 mRNA", "value": "completely rescued"}, {"measurement": "Tm-suppressed INS2 mRNA level", "setting": "INS2 mRNA", "value": "completely rescued"}, {"measurement": "range of concentrations retaining maximum β-cell-protective activity", "setting": "INS-1 cells [1]; INS-1 cells, Tm 0.1 μg/mL, 72 h, FIG. 2A", "value": "0.16 to 20", "unit": "µM"}, {"measurement": "maximum activity (β-cell-protective activity)", "setting": "INS-1 cells [1]; INS-1 cells, Tm-induced ER stress", "value": "~100", "unit": "%"}, {"measurement": "EC50", "setting": "INS-1 cells [1]; INS-1 cells, Tm-induced ER stress, read-out: EC50", "value": 32, "unit": "nM"}, {"measurement": "effect of compound on its own on β-cell viability", "setting": "INS-1 cells [1]; INS-1 cells, no Tm, 72 h, FIG. 2D", "value": "no effect"}, {"measurement": "Maximum activity (% rescue)", "setting": "INS-1 cells [1]; Table 5, INS-1 cells, Tm 0.1 μg/mL, 72 h, Tm alone 0%, DMSO control 100%", "value": "97% ± 8%"}, {"measurement": "viability of INS-1 β-cells under Tm treatment (intracellular ATP)", "setting": "INS-1 cells [1]; Tm 0.1 μg/mL, 72 h, FIG. 2A", "value": "rescued the viability of INS-1 β-cells under Tm treatment in a dose-dependent manner"}, {"measurement": "EC50", "setting": "INS-1 cells [1]; running text b108, read-out: EC50 value against ER stress", "value": "~30", "unit": "nM"}, {"measurement": "viability of INS-1 cells under Tm treatment (MTT)", "setting": "INS-1 cells [2]", "value": "restored the viability of INS-1 cells"}, {"measurement": "viable INS-1 cells with Tm co-treatment vs Tm alone", "setting": "INS-1 cells [3]", "value": "significantly more viable INS-1 cells"}]}]}
